Patent publication US20070128217A1 (priority 2003, published 2007)

Assays:
[1] = tested on: antibodies in sera from SARS patients (sera 1a, 1b, 2, 6, 37, 62, London, SARS-yellow, SARS-green); assay type: binding, human; design: Binding of serum 6 to linear peptides of protein X1 of SARS-CoV Urbani / Binding of serum 37 to linear peptides of protein X1 of SARS-CoV Urbani / Binding of serum 6 to looped/cyclic peptide (PEPSCAN-ELISA) / Binding of serum 37 to looped/cyclic peptide (PEPSCAN-ELISA) / Binding of serum 37 to looped/cyclic peptides of protein X1 of SARS-CoV Urbani / Binding of serum 6 to linear peptides of protein X2 / Binding of serum 37 to linear peptides of protein X2 / Binding of serum 37 to looped/cyclic peptides of protein X2 of SARS-CoV Urbani / Binding of serum 6 to linear peptides of protein M of SARS-CoV Urbani / Binding of serum 37 to linear peptides of protein M of SARS-CoV Urbani / Binding of serum 6 to looped/cyclic peptides of protein M of SARS-CoV Urbani / Binding of serum 37 to looped/cyclic peptides of protein M of SARS-CoV Urbani / Binding of serum 6 to linear peptides of protein X3 of SARS-CoV Urbani / Binding of serum 37 to linear peptides of protein X3 of SARS-CoV Urbani / Binding of serum 37 to looped/cyclic peptides of protein X3 of SARS-CoV Urbani / Binding of serum 6 to linear peptides of protein X4 of SARS-CoV Urbani / Binding of serum 37 to linear peptides of protein X4 of SARS-CoV Urbani / Binding of serum 37 to looped/cyclic peptides of protein X4 of SARS-CoV Urbani / Binding of serum 6 to linear peptides of protein X5 of SARS-CoV Urbani / Binding of serum 37 to linear peptides of protein X5 of SARS-CoV Urbani / Binding of serum 37 to looped/cyclic peptides of protein X5 of SARS-CoV Urbani / Binding of serum 6 to linear peptides of protein N of SARS-CoV Urbani / Binding of serum 37 to linear peptides of protein N of SARS-CoV Urbani / Binding of serum 6 to linear peptide (PEPSCAN-ELISA) / Binding of serum 1a to looped/cyclic peptides of protein N of SARS-CoV Urbani / Binding of serum 1b to looped/cyclic peptides of protein N of SARS-CoV Urbani / Binding of serum 2 to looped/cyclic peptides of protein N of SARS-CoV Urbani / Binding of serum 6 to looped/cyclic peptides of protein N of SARS-CoV Urbani / Binding of serum 37 to looped/cyclic peptides of protein N of SARS-CoV Urbani / Binding of serum 62 to looped/cyclic peptides of protein N of SARS-CoV Urbani / Binding of serum London to looped/cyclic peptides of protein N of SARS-CoV Urbani / Binding of serum SARS-green to looped/cyclic peptides of protein N of SARS-CoV Urbani: unit not given here
[2] = tested on: control sera (pooled serum of ten healthy LUMC hospital workers; commercial negative donor pooled serum from the Dutch bloodbank); assay type: binding, human; design: Binding of Control serum LUMC to linear peptides / Binding of Control serum Blood-bank to linear peptides / Binding of Control serum LUMC to looped peptides / Binding of Control Serum Blood-Bank to Looped peptides / Binding of Control serum LUMC to linear peptides of the protein M of SARS-CoV Urbani / Binding of Control serum Blood-bank to linear peptides of the protein M of SARS-CoV Urbani / Binding of Control serum LUMC to looped peptides of the protein M of SARS-CoV Urbani / Binding of Control Serum Blood-Bank to Looped peptides of the protein M of SARS-CoV Urbani: unit not given here
[3] = tested on: rabbit serum obtained by immunizing a rabbit with the SARS-CoV strain Frankfurt 1; assay type: binding; design: Binding of a rabbit serum to linear peptides / Binding of a rabbit serum to looped peptides / Rabbit serum linear peptides / Rabbit serum looped peptides / Binding of a rabbit serum to linear peptides of protein N of SARS-CoV Urbani (Rabbit serum linear peptides) / Binding of a rabbit serum to looped/cyclic peptides of protein N of SARS-CoV Urbani (Rabbit serum looped peptides): unit not given here
[4] = tested on: recombinant human anti-SARS-CoV antibody 03-018; assay type: binding; design: Binding of antibody 03-018 to linear peptides of the N protein of SARS-CoV Urbani / Binding of antibody 03-018 to looped/cyclic peptides of the N protein of SARS-CoV Urbani: unit not given here

NNTASWFTALTQHGK was tested, and the “Binding of serum 1a to linear peptides of protein N of SARS-CoV Urbani” value [1] was 0.2, the “Binding of serum 1a to looped/cyclic peptides of protein N of SARS-CoV Urbani” value [1] was 0.2 and the “Binding of serum 1b to linear peptides of protein N of SARS-CoV Urbani” value [1] was 0.1. For the same sequence, the “Binding of serum 1b to looped/cyclic peptides of protein N of SARS-CoV Urbani” value [1] was 0.1, the “Binding of serum 2 to linear peptides of protein N of SARS-CoV Urbani” value [1] was 0.2 and the “Binding of serum 2 to looped/cyclic peptides of protein N of SARS-CoV Urbani” value [1] was 0.2. The “Binding of serum 6 to linear peptides of protein N of SARS-CoV Urbani” value [1] was 0.1, the “Binding of serum 6 to looped/cyclic peptides of protein N of SARS-CoV Urbani” value [1] was 0.1 and the “Binding of serum 37 to linear peptides of protein N of SARS-CoV Urbani” value [1] was 0.7. For the same sequence, the “Binding of serum 37 to looped/cyclic peptides of protein N of SARS-CoV Urbani” value [1] was 0.4, the “Binding of serum 62 to linear peptides of protein N of SARS-CoV Urbani” value [1] was 0.6 and the “Binding of serum 62 to looped/cyclic peptides of protein N of SARS-CoV Urbani” value [1] was 0.2. The “Binding of serum London to linear peptides of protein N of SARS-CoV Urbani” value [1] was 0.4, the “Binding of serum London to looped/cyclic peptides of protein N of SARS-CoV Urbani” value [1] was 0.2 and the “Binding of serum SARS-green to linear peptides of protein N of SARS-CoV Urbani” value [1] was 0.4. The “Binding of serum SARS-green to looped/cyclic peptides of protein N of SARS-CoV Urbani” value [1] was 0.1, the “Binding of serum SARS-yellow to linear peptides of protein N of SARS-CoV Urbani” value [1] was 0.5 and the “Binding of serum SARS-yellow to looped/cyclic peptides of protein N of SARS-CoV Urbani” value [1] was 0.1. The “Binding of Control Serum Blood-Bank to Looped peptides” value [2] was 0.5, the “Binding of Control serum Blood-bank to linear peptides” value [2] was 0.6 and the “Binding of Control serum LUMC to linear peptides” value [2] was 0.7. The “Binding of Control serum LUMC to looped peptides” value [2] was 0.4, the “Binding of a rabbit serum to linear peptides of protein N of SARS-CoV Urbani (Rabbit serum linear peptides)” value [3] was 0.1 and the “Binding of a rabbit serum to looped/cyclic peptides of protein N of SARS-CoV Urbani (Rabbit serum looped peptides)” value [3] was 0.3. For the same sequence, the “Binding of antibody 03-018 to linear peptides of the N protein of SARS-CoV Urbani” value [4] was 0.1 and the “Binding of antibody 03-018 to looped/cyclic peptides of the N protein of SARS-CoV Urbani” value [4] was 0.2.

With NPNNNAATVLQLPQG the “Binding of serum 1a to linear peptides of protein N of SARS-CoV Urbani” value [1] was 0.4, the “Binding of serum 1a to looped/cyclic peptides of protein N of SARS-CoV Urbani” value [1] was 0.4 and the “Binding of serum 1b to linear peptides of protein N of SARS-CoV Urbani” value [1] was 0.2. For the same sequence, the “Binding of serum 1b to looped/cyclic peptides of protein N of SARS-CoV Urbani” value [1] was 0.4, the “Binding of serum 2 to linear peptides of protein N of SARS-CoV Urbani” value [1] was 0.4 and the “Binding of serum 2 to looped/cyclic peptides of protein N of SARS-CoV Urbani” value [1] was 0.5. The “Binding of serum 6 to linear peptides of protein N of SARS-CoV Urbani” value [1] was 0.3, the “Binding of serum 6 to looped/cyclic peptides of protein N of SARS-CoV Urbani” value [1] was 0.3 and the “Binding of serum 37 to linear peptides of protein N of SARS-CoV Urbani” value [1] was 0.8. For the same sequence, the “Binding of serum 37 to looped/cyclic peptides of protein N of SARS-CoV Urbani” value [1] was 0.9, the “Binding of serum 62 to linear peptides of protein N of SARS-CoV Urbani” value [1] was 0.9 and the “Binding of serum 62 to looped/cyclic peptides of protein N of SARS-CoV Urbani” value [1] was 0.9. The “Binding of serum London to linear peptides of protein N of SARS-CoV Urbani” value [1] was 0.8, the “Binding of serum London to looped/cyclic peptides of protein N of SARS-CoV Urbani” value [1] was 0.5 and the “Binding of serum SARS-green to linear peptides of protein N of SARS-CoV Urbani” value [1] was 0.6. The “Binding of serum SARS-green to looped/cyclic peptides of protein N of SARS-CoV Urbani” value [1] was 0.7, the “Binding of serum SARS-yellow to linear peptides of protein N of SARS-CoV Urbani” value [1] was 0.8 and the “Binding of serum SARS-yellow to looped/cyclic peptides of protein N of SARS-CoV Urbani” value [1] was 0.5. The “Binding of Control Serum Blood-Bank to Looped peptides” value [2] was 0.8, the “Binding of Control serum Blood-bank to linear peptides” value [2] was 0.9 and the “Binding of Control serum LUMC to linear peptides” value [2] was 0.9. The “Binding of Control serum LUMC to looped peptides” value [2] was 0.9, the “Binding of a rabbit serum to linear peptides of protein N of SARS-CoV Urbani (Rabbit serum linear peptides)” value [3] was 0.1 and the “Binding of a rabbit serum to looped/cyclic peptides of protein N of SARS-CoV Urbani (Rabbit serum looped peptides)” value [3] was 0.3. For the same sequence, the “Binding of antibody 03-018 to linear peptides of the N protein of SARS-CoV Urbani” value [4] was 0.1 and the “Binding of antibody 03-018 to looped/cyclic peptides of the N protein of SARS-CoV Urbani” value [4] was 0.3.
